Measured values taken from US6869964B2, “Heterocyclicsulfonamide hepatitis C virus inhibitors” (Bristol-Myers Squibb Company, priority 2002, dated 2005).

Experiments:
[1] = system: HCV replicon in Huh7 cells; assay: HCV replicon cell-based assay (FRET); set-up: species or system HCV strain 1B; conditions: Hepatitis C virus, Huh-7; replicon, activity range; read-out: EC50 a, b, c (Activity Table)
Source text: HCV Replicon Cell-based Assay
An HCV replicon whole cell system was established as described by Lohmann V, Korner F, Koch J, Herian U, Theilmann L, Bartenschlager R., Science 285(5424): 110-3 (1999). This system enabled us to evaluate the effects of our HCV Protease compounds on HICV RNA replication. Briefly, using the HCV strain 1B sequence described in the Lohmann paper (Assession number: AJ238799), an HCV cDNA was generated encoding the 5′ internal ribosome entry site (IRES), the neomycin resistance gene, the EMCV (encephalomyocarditis virus)-IRES and the HCV nonstructural proteins, NS3-NS5B, and 3′ non-translated region (NTR). In vitro transcripts of the cDNA were transfected into the human hepatoma cell line, Huh7. […] Resulting cell lines were characterized for positive and negative strand RNA production and protein production over time.
Huh7 cells, constitutively expressing the HCV replicon, were grown in Dulbecco's Modified Eagle Media (DMEM) containing 10% Fetal calf serum (FCS) and 1 mg/ml G418 (Gibco-BRL). Cells were seeded the night before (1.5×10^4 cells/well) in 96-well tissue-culture sterile plates. Compound and no compound controls were prepared in DMEM containing 4% FCS, 1:100 Penicillin/Streptomysin, 1:100 L-glutamine and 5% DMSO in the dilution plate (0.5% DMSO final concentration in the assay). Compound/DMSO mixes were added to the cells and incubated for 4 days at 37° C. After 4 days, plates were rinsed thoroughly with Phosphate-Buffered Saline (PBS) (3 times 150 μl). The cells were lysed with 25 μl of a lysis assay reagent containing the FRET peptide (RET S1, as described for the in vitro enzyme assay). The lysis assay reagent was made from 5× cell Luciferase cell culture lysis reagent(Promega #E153A) diluted to 1× with distilled water, NaCl added to 150 mM final, the FRET peptide diluted to 10 μM final from a 2 mM stock in 100% DMSO. The plate was then placed into the Cytofluor 4000 instrument which had been set to 340 nm excitation/490 emission, automatic mode for 21 cycles and the plate read in a kinetic mode. EC50 determinations were carried out as described for the IC50 determinations.

[2] = molecular target: T1, HCV NS3/4A protease complex (BMS strain) (Hepatitis C virus genotype 1a, UniProt P27958, C1454S); assay: Recombinant HCV NS3/4A protease complex FRET peptide assay, BMS strain; assay type: biochemical, HCV genotype 1a; conditions: NS3/4A BMS Strain, activity range; read-out: IC50 a, b, c (Activity Table)
T1 construct: HCV NS3/4A protease complex (amino acids 1027 to 1711); inferred from pET21b vector and Ni-NTA purification; made in house; host or cells: Escherichia coli BL21 (DE3), pET21b
Source text: Recombinant HCV NS3/4A Protease Complex FRET Peptide Assay
The purpose of this in vitro assay was to measure the inhibition of HCV NS3 protease complexes, derived from the BMS, H77C or J4l6S strains, as described below, by compounds of the present invention. This assay provides an indication of how effective compounds of the present invention would be in inhibiting HCV proteolytic activity.
Serum from an HCV-infected patient was obtained from Dr. T. Wright, San Francisco Hospital. An engineered full-length cDNA template of the HCV genome (BMS strain) was constructed from DNA fragments obtained by reverse transcription-PCR (RT-PCR) of serum RNA and using primers selected on the basis of homology between other genotype la strains. From the determination of the entire genome sequence, a genotype la was assigned to the HCV isolate according to the classification of Simmonds et al. (See P Simmonds, K A Rose, S Graham, S W Chan, F McOmish, B C Dow, E A Follett, P L Yap and H Marsden, J. Clin. Microbiol., 31(6), 1493-1503 (1993)). […] The infectious clones, H77C (1a genotype) and J4 L6S (1b genotype) were obtained from R. Purcell (NIH) and the sequences are published in Genbank (AAB67036, see Yanagi, M., Purcell, R. H., Emerson, S. U. and Bukh, J. Proc. Natl. Acad. Sci. U.S.A. 94(16),8738-8743 (1997); AF054247, see Yanagi, M., St Claire, M., Shapiro, M., Emerson, S. U., Purcell, R. H. and Bukh, J, Virology 244 (1), 161-172. (1998)).
The BMS, H77C and J4 L6S strains were used for production of recombinant NS3/4A protease complexes. DNA encoding the recombinant HCV NS3/4A protease complex (amino acids 1027 to 1711) for these strains were manipulated as described by P. Gallinari et al. (see Gallinari P, Paolini C, Brennan D, Nardi C, Steinkuhler C, De Francesco R. Biochemistry. 38(17):5620-32, (1999)). Briefly, a three-lysine solubilizing tail was added at the 3′-end of the NS4A coding region. The cysteine in the P1 position of the NS4A-NS4B cleavage site (amino acid 1711) was changed to a glycine to avoid the proteolytic cleavage of the lysine tag. Furthermore, a cysteine to serine mutation was introduced by PCR at amino acid position 1454 to prevent the autolytic cleavage in the NS3 helicase domain. The variant DNA fragment was cloned in the pET21b bacterial expression vector (Novagen) and the NS3/4A complex was expressed in Escherichia coli strain BL21 (DE3) (Invitrogen) following the protocol described by P. Gallinari et al. (see Gallinari P, Brennan D, Nardi C, Brunetti M, Tomei L, Steinkuhler C, De Francesco R., J Virol. 72(8):6758-69 (1998)) with modifications. Briefly, NS3/4A expression was induced with 0.5 mM Isopropyl β-D-1-thiogalactopyranoside (IPTG) for 22 hr at 20° C. A typical fermentation (10 L) yielded approximately 80 g of wet cell paste. The cells were resuspended in lysis buffer (10 mL/g) consisting of 25 mM N-(2-Hydroxyethyl)Piperazine-N′-(2-Ethane Sulfonic acid) (HEPES), pH7.5, 20% glycerol, 500 mM Sodium Chloride (NaCl), 0.5% Triton-X100, 1 ug/ml lysozyme, 5 mM Magnesium Chloride (MgCl2), 1 ug/ml DnaseI, 5 mM β-Mercaptoethanol (βME), Protease inhibitor—Ethylenediamine Tetraacetic acid (EDTA) free (Roche), homogenized and incubated for 20 mins at 4° C. The homogenate was sonicated and clarified by ultra-centrifugation at 235000 g for lhr at 4° C. Imidazole was added to the supernatant to a final concentration of 15 mM and the pH adjusted to 8.0. The crude protein extract was loaded on a Nickel—Nitrilotriacetic acid (Ni—NTA) column pre-equilibrated with buffer B (25 mM HEPES, pH8.0, 20% glycerol, 500 mM NaCl, 0.5% Triton-X100, 15 mM imidazole, 5 mM βME). The sample was loaded at a flow rate of 1 mL/min. The column was washed with 15 column volumes of buffer C (same as buffer B except with 0.2% Triton-X100). The protein was eluted with 5 column volumes of buffer D (same as buffer C except with 200 mM Imidazole). […]

T1 sequence (P27958 1027-1657 C1454S): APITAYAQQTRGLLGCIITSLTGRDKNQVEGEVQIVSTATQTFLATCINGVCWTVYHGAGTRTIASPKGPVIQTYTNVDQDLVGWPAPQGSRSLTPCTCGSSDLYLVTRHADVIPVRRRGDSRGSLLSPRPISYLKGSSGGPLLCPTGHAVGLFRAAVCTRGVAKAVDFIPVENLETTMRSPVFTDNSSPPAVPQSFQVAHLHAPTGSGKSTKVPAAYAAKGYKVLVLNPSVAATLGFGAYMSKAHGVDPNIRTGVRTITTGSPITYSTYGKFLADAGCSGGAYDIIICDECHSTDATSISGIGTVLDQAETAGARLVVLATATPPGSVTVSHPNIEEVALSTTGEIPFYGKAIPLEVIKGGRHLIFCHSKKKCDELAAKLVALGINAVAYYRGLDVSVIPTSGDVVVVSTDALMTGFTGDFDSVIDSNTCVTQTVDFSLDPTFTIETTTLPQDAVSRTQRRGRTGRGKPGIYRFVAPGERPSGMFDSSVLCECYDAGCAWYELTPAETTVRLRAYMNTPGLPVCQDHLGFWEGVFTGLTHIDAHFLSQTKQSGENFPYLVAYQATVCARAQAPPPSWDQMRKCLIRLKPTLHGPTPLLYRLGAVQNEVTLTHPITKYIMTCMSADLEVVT
T1 sequence (P27958 1658-1711 partner, looked up, stated change not applied): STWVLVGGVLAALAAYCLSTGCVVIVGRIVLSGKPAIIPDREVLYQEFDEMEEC

C=CC1C[C@]1(NC(=O)[C@@H]1C[C@@H](Oc2cc(-c3ccccc3)nc3cc(OC)ccc23)CN1C(=O)[C@@H](NC(=O)OC(C)(C)C)C(C)(C)C)C(=O)NS(=O)(=O)c1nnc(NC(C)=O)s1 (stereo in doubt) [Compound 12, {1-[2-[1-(5-Acetylamino-[1,3,4]thiadiazole-2-sulfonylaminocarbonyl)-2-vinylcyclopropylcarbamoyl]-4-(7-methoxy-2-phenyl-quinolin-4-yloxy)-pyrrolidine-1-carbonyl]-2,2-dimethylpropyl}carbamic acid tert-butyl ester]
EC50 [1]: 1 to 10 µM
IC50 [2]: 0.1 to 1 µM

C=CC1C[C@]1(NC(=O)[C@@H]1C[C@@H](Oc2cc(-c3ccccc3)nc3cc(OC)ccc23)CN1C(=O)[C@@H](NC(=O)OC(C)(C)C)C(C)(C)C)C(=O)NS(=O)(=O)c1c(C)noc1C (stereo in doubt) [Compound 14, {1-[2-[1-(3,5-Dimethylisoxazole-4-sulfonylaminocarbonyl)-2-vinyl-cyclopropylcarbamoyl]-4-(7-methoxy-2-phenyl-quinolin-4-yloxy)-pyrrolidine-1-carbonyl]-2,2-dimethyl-propyl}-carbamic acid tert-butyl ester]
EC50 [1]: 0.1 to 1 µM
IC50 [2]: < 0.1 µM

C=CC1C[C@]1(NC(=O)[C@@H]1C[C@@H](Oc2cc(-c3ccccc3)nc3cc(OC)ccc23)CN1C(=O)[C@@H](NC(=O)OC(C)(C)C)C(C)(C)C)C(=O)NS(=O)(=O)c1nc2ccc(OCC)cc2s1 (stereo in doubt) [Compound 15, {1-[2-[1-(6-Ethoxybenzothiazole-2-sulfonylaminocarbonyl)-2-vinyl-cyclopropylcarbamoyl]-4-(7-methoxy-2-phenyl-quinolin-4-yloxy)-pyrrolidine-1-carbonyl]-2,2-dimethylpropyl}-carbamic acid tert-butyl ester]
EC50 [1]: 1 to 10 µM
IC50 [2]: 0.1 to 1 µM

C=CC1C[C@]1(NC(=O)[C@@H]1C[C@@H](Oc2cc(-c3ccccc3)nc3cc(OC)ccc23)CN1C(=O)[C@@H](NC(=O)OC(C)(C)C)C(C)(C)C)C(=O)NS(=O)(=O)c1cc([N+](=O)[O-])c(Cl)s1 (stereo in doubt) [Compound 16, {1-[2-[1-(5-Chloro-4-nitro-thiophene-2-sulfonylaminocarbonyl)-2-vinylcyclopropylcarbamoyl]-4-(7-methoxy-2-phenyl-quinolin-4-yloxy)-pyrrolidine-1-carbonyl]-2,2-dimethyl-propyl}carbamic acid tert-butyl ester]
EC50 [1]: 0.1 to 1 µM
IC50 [2]: < 0.1 µM

C=CC1C[C@]1(NC(=O)[C@@H]1C[C@@H](Oc2cc(-c3ccccc3)nc3cc(OC)ccc23)CN1C(=O)[C@@H](NC(=O)OC(C)(C)C)C(C)(C)C)C(=O)NS(=O)(=O)c1ccc(-c2cc(C(F)(F)F)nn2C)s1 (stereo in doubt) [Compound 17, [1-(4-(7-Methoxy-2-phenyl-quinolin-4-yloxy)-2-{1-[5-(2-methyl-5-trifluoromethyl-2H-pyrazol-3-yl)thiophene-2-sulfonylaminocarbonyl]-2-vinyl-cyclopropylcarbamoyl}-pyrrolidine-1-carbonyl)-2,2-dimethylpropyl]carbamic acid tert-butyl ester]
EC50 [1]: 0.1 to 1 µM
IC50 [2]: < 0.1 µM

C=CC1C[C@]1(NC(=O)[C@@H]1C[C@@H](Oc2cc(-c3ccccc3)nc3cc(OC)ccc23)CN1C(=O)[C@@H](NC(=O)OC(C)(C)C)C(C)(C)C)C(=O)NS(=O)(=O)c1cc(Cl)c(Br)s1 (some centres unmarked) [Compound 6, {-[2-{1-[5-Bromo-4-chlorothiophene-2-sulfonylamino-carbonyl]-2-vinylcyclopropylcarbamoyl}-4-(7-methoxy-2-phenyl-quinolin-4-yloxy)pyrrolidine-1-carbonyl]-2,2-dimethylpropyl}carbarmic acid tert-butyl ester]
EC50 [1]: 0.1 to 1 µM
IC50 [2]: < 0.1 µM

C=CC1C[C@]1(NC(=O)[C@@H]1C[C@@H](Oc2cc(-c3ccccc3)nc3cc(OC)ccc23)CN1C(=O)[C@@H](NC(=O)OC(C)(C)C)C(C)(C)C)C(=O)NS(=O)(=O)c1nc(NC(C)=O)sc1C (some centres unmarked) [Compound 11, {1-[2-{1-[2-Acetylamino-5-methylthiazole-4-sulfonylaminocarbonyl]-2-vinylcyclopropylcarbamoyl}-4-(7-methoxy-2-phenyl-quinolin-4-yloxy)pyrrolidine-1-carbony]-2,2-dimethylpropyl}carbamic acid tert-butyl ester]
EC50 [1]: 1 to 10 µM
IC50 [2]: < 0.1 µM
